We go through three compounds from patent US8853234B2, “Quinolone analogs and methods related thereto” (Senhwa Biosciences, Inc., priority 2007, dated 2014).

The test system of one series is rDNA. As to the kind of experiment: Quantitative PCR (QPCR) assay, rRNA inhibition (rDNA). The format is cell-based. More on the design: Selectivity: reference not given here. To be noted: for Selectivity: not defined in the patent; for pIC50: rRNA inhibition from quantitative PCR assay. An excerpt:
In a specific assay embodiment, provided herein is a method for identifying a molecule that modulates ribosomal RNA (rRNA) synthesis, which comprises: contacting cells with a test molecule of Formula (I), (II), (III), (IV), (V), (VI), (VI′), (VII), or (VIII), contacting a ribosomal nucleotide sequence with one or more primers that amplify a portion thereof and a labeled probe that hybridizes to the amplification product, and detecting the amount of the amplification product by hybridization of the labeled probe, whereby a test molecule that reduces or increases the amount of amplification product is identified as a molecule that modulates rRNA synthesis. The labeled probe in some embodiments is added after the primers are added and the rRNA is amplified, and in certain embodiments, the labeled probe and the primers are added at the same time. The portion of ribosomal nucleotide sequence amplified sometimes is at the 5′ end of rDNA.
Real-time quantitative PCR (QPCR) method may be used to detect the changes of the target c-myc and the endogenous reference GAPDH gene copies in the same tube. Generally, cells (15,000 cells/well) are seeded on 96 well flat bottom plates (Corning, N.Y.) and incubated under normal growth conditions for overnight. The next day, the culture medium is exchanged for that containing anticancer drugs at various concentrations and incubated for 4 hrs in a humidified atmosphere of 5% CO2 at 37° C. Total RNA (tRNA) is extracted using the RNeasy 96 Kit (QIAGEN, CA). The concentration of the tRNA is determined by the RiboGreen RNA Quantitation Reagent (Molecular Probes, OR).
A reverse-transcription (RT) reaction may be conducted using 50 ng of tRNA from each well in a 25 μl reaction containing 1× TaqMan RT buffer, 2.5 uM random hexamers, 5.5 mM MgCl2, 0.5 mM each deoxynucleoside triphosphate (dNTP), 30 U MultiScribe Reverse Transcriptase, and 10 U RNase inhibitor. RT reactions are incubated for 10 min at 25° C., reverse-transcribed for 30 min at 48° C., inactivated for 5 min at 95° C., and placed at 4° C. All RT reagents may be purchased from Applied Biosystems, CA.
Real-Time QPCR reaction may be performed in a 50 μl reaction containing the 5 μl of cDNA, 1× Universal PCR Master Mix, 1× c-myc Pre-Developed Primers and Probe set, and 0.8×GAPDH Pre-Developed Primers and Probe set. Because of the relative abundance of GAPDH gene in Hela, GAPDH primers and probe concentration may be adjusted to get accurate threshold cycles (CT) for both genes in the same tube. The threshold cycle (CT) indicates the fractional cycle number at which the amount of amplified target reaches a fixed threshold. By doing so, the GAPDH amplification is stopped before it can limit the common reactants available for amplification of the c-myc. The ΔRn value represents the normalized reporter signal minus the baseline signal. ΔRn increases during PCR as amplicon copy number increases until the reaction approaches a plateau.
The c-myc probe is labeled with 6FAM™ dye-MGB and the GAPDH probe is labeled with VIC™ dye-MTB. Preincubation is performed for 2 min at 50° C. to activate AmpErase UNG enzyme and then for 10 min at 95° C. to activate AmpliTaq DNA Polymerase. DNA is amplified for 40 cycles of 15 sec at 95° C. and 1 min at 60° C. Human c-myc and GAPDH cDNA are amplified, detected, and quantitated in real time using the ABI Prism 7000 Sequence Detection system (Applied Biosystems, CA), which is set to detect both 6-FAM and VIC reporter dyes simultaneously.
The data may be analyzed using the ABI PRISM Sequence Detection System and Microsoft Excel. Relative quantitation is done using the standard curve and comparative CT method at the same time, and both methods gave equivalent results. The cycle at which the amplification plot crosses the CT is known to accurately reflect relative mRNA values. (See, Heid, et al., Genome Res. (1996) 6:986-994; Gibson, et al., Genome Res. (1996) 6:995-1001). […]

A short description of series [1]: Cassette dosing oral pharmacokinetics in ICR mice. The format is in vivo. To be noted: ICR (IcrTac:ICR), mouse; cassette oral dose 25 mg/kg, female ICR mice, plasma, 0-8 h, none in table. As to the method:
A cassette dosing procedure was utilized to determine pharmaceutical properties of compounds disclosed herein. In this procedure, compounds are selected for each cassette (i.e., cocktail) on the basis that mass spectrometric signals for each compound will not interfere with one another upon mass spectrometric analysis (e.g., will not overlap). The concentration of each compound in the dosing cassette often is about 20 mg/mL to achieve an oral dose level of 25 mg/kg in ICR mice. Aspects of the cassette dosing procedure are described hereafter.
Prepare 0.5 mL of 20 mg/mL dosing solution (in PBS or formulation vehicle) of 12 test compounds. Dilute a dosing solution 20 fold by transferring 10 μL of the stock solution into 190 μL acetonitrile containing 0.1% formic acid to achieve a final concentration of 1 mg/mL. Dilute further a 1 mg/mL solution 1,000 fold by transferring 1 μL of the stock solution into 999 μL acetonitrile containing 0.1% formic acid to achieve a final concentration of 1 μg/mL. Use the 1 μg/mL solution for mass spectrometric method development based on direct infusion. Determine parent/daughter mass spectra of each compound using multiple reaction monitoring (MRM). Compare parent/daughter mass spectra of each compound to assure no cross-reaction interference during LC-MS/MS measurements. Based on MRM mass spectra determine the composition of all cassettes.
Mix 250 μL of four prepared dosing solutions and an oral PK internal standard (20 mg/mL each) according to cassette design to achieve a final concentration of 4 mg/mL. Vortex cassettes rigorously and ultra-sonicate to obtain a clear solution or homogeneous suspension. Use the cassette solutions to dose animals by oral route of administration at 25 mg/kg.
All in vivo experiments follow protocols approved by the Animal Use and Care Committee. Female ICR mice (IcrTac:ICR), 8-10 weeks of age are obtained from Taconic (Hudson, N.Y.). Mice are housed on a 12 h/12 h light/dark cycle with ad libitum access to water and food. After a minimum two week acclimation period, the mice are randomized into groups with a minimum group size of four. The animals used for pharmacokinetic studies have a body-weight range of 25-35 g. A 25 mg/kg (4 mg/ml) dose of a cassette described in Example 1 is orally administered to mice that have been fasted overnight.
After compound administration, serial blood samples are collected via retro-orbital puncture with a capillary tube at various time points (15, 30 minutes and 1, 2, 4, 6 and 8 hours). The samples are transferred to a heparinized 0.5 mL microcentrifuge tube and placed on ice. Plasma is separated by centrifugation and samples are stored at −80° C. until assay.
Dilute a cassette dosing solution (4 mg/mL) four fold by transferring 25 μL of the stock solution into 75 μL of 50% acetonitrile containing 0.1% formic acid to achieve the concentration of 1 mg/mL. Dilute this stock solution further by serial dilutions to make 0.01, 0.1, 1 and 5 μg/mL working standard solutions.
Prepare 500 mL of 0.5 μg/mL solution of bioanalytical internal standard using 100% acetonitrile with 0.1% formic acid. Store the quenching solution in a tightly sealed bottle at 4° C.
Transfer 15 μL of blank mouse plasma to a 96 well plate and precipitate plasma proteins by pipetting of 120 μL of quenching solution to all plasma aliquots. Cover the plate with a matching plate mat and mix well for 30-60 seconds using a vertical multi-tube shaker.
Add 15 μL of the working standard solution of corresponding cassette to quenched plasma and vortex the plate for an additional 30-60 seconds. Then, centrifuge the plate at 4,000 rpm for 10 minutes at 4° C. Without disturbing the plasma protein pellet, transfer 120 μL of the supernatant to a new 96 well plate and dry the sample under nitrogen using a TurboVap® plate evaporator (Caliper Life Sciences; Hopkinton, Mass.). Reconstitute dried residues with 120 μL 20% acetonitrile containing 0.1% formic acid. […]

In series [2] the test system is A375 cell xenograft tumors. As to the kind of experiment: A375 cell xenograft tumor inhibition. The note with it: 75 mg/kg oral twice a day, seven days. The format is in vivo, rodents. As for the experimental part: Compounds A1, A2 and A3 also were tested for tumor inhibition in xenograft rodents. Rodents having A375 cell xenograft tumors were administered 100 mg/kg, 75 mg/kg and 100 mg/kg doses of Compound A1, A2 and A3, respectively, by oral delivery twice a day. […] Also, rodents having MiaPaCa xenograft tumors were administered 100 mg/kg doses of Compound A1 and A3 by oral delivery twice per day.

The test system of series [3] is a variety of cell types that are representative of different cancers. As to the kind of experiment: Alamar Blue cell viability assay, variety of cell types representative of different cancers (Tables 12-14). The format is cell-based. To be noted: read-out: IC50. As to the method: A representative cell-proliferation assay protocol using Alamar Blue dye (stored at 4° C., use 20 ul per well) is described hereafter.
96-Well Plate Setup and Compound Treatment
a. Split and trypsinize cells.
b. Count cells using hemocytometer.
c. Plate 4,000-5,000 cells per well in 100 μl of medium and seed into a 96-well plate according to the following plate layout. Add cell culture medium only to wells B10 to B12. Wells B1 to B9 have cells but no compound added.
d. Add 100 μl of 2× drug dilution to each well in a concentration shown in the plate layout above. At the same time, add 100 μl of media into the control wells (wells B10 to B12). Total volume is 200 μl/well.
e. Incubate four (4) days at 37° C., 5% CO2 in a humidified incubator.
f. Add 20 μl Alamar Blue reagent to each well.
g. Incubate for four (4) hours at 37° C., 5% CO2 in a humidified incubator.
h. Record fluorescence at an excitation wavelength of 544 nm and emission wavelength of 590 nm using a microplate reader.
In the assays, cells are cultured with a test compound for approximately four days, the dye then is added to the cells and fluorescence of […] dye is detected after approximately four hours. Different types of cells can be utilized in the assays (e.g., HCT-116 human colorectal carcinoma cells, PC-3 human prostatic cancer cells and MiaPaca human pancreatic carcinoma cells). Anti-proliferative effects of representative compounds are provided hereafter.
Inhibitory activity on cell proliferation of Compounds A1, A2 and A3 was determined using an Alamar Blue cell viability assay (e.g., Example 39 herein) using a variety of cell types that are representative of different cancers Inhibition values (IC50) are presented in micromolar concentrations in the following table (Table 12).
Inhibitory activity on cell proliferation of representative compounds of the invention was determined using an Alamar Blue cell viability assay (e.g., Example 39 herein) using a variety of cell types that are representative of different cancers Inhibition values (IC50) are presented in micromolar concentrations in Table 13 and Table 14.
On the technique in general: The colour change of resazurin is a common sign of viable cells or microbes.

pIC50: −log10 of the molar value. Where two headings read alike, the source gives them in different places.

In the series on rDNA, `CN1CCN(NC(=O)c2c(=O)c3cc(F)c(N4CCOCC4)nc3n3c2sc2ccccc23)CC1` showed a Selectivity of 89 and a pIC50 of 6.99. Moreover, in series [1], the AUC(0-t) was determined as 4360 ng·h/mL.

In the series on rDNA, `O=C(NCc1ccccn1)c1c(=O)c2cc(F)c(N3CCOCC3)nc2n2c1sc1ccccc12` gave a Selectivity of 1 and a negative logarithm of the IC50 (pIC50) of 4.65. In series [1], this compound showed an area under the curve AUC(0-t) of 90600 ng·h/mL.

For `Cc1cnc(CNC(=O)c2c(=O)c3ccc(N4CCCN(C)CC4)nc3n3c2sc2ccccc23)cn1` [Compound A2], in series [2], the “A375 tumor growth inhibition relative to untreated control group” value was “significantly inhibited A375 tumor growth”. The negative logarithm of the IC50 (pIC50) in series [3] (Homo sapiens, A-375, A375, Skin, Epithelial) is 7.64; in series [3] (Homo sapiens, BXPC-3, BXPC3, Pancreas, Epithelial), 7.46; in series [3] (Homo sapiens, COLO 205, COLO-205, Colorectal, Epithelial) it was 7.02; in series [3] (Homo sapiens, HCT-116, HCT-116, Colorectal, Epithelial), 7.49; in series [3] (Homo sapiens, HL60/MX2, HL60/MX2, Hematopoetic, Lymphoma) it was 6.83; in series [3] (Homo sapiens, HL-60, HL60, Hematopoetic, Lymphoma) it was 7.08. Also, the negative-log IC50 (pIC50) in series [3] (Homo sapiens, HT-29, HT-29, Colorectal, Epithelial) was 7.38; in series [3] (Homo sapiens, Jurkat, Hematopoetic, Lymphoma), 7.60; in series [3] (Homo sapiens, K562, K562, Hematopoetic, Lymphoblast), 7.38; in series [3] (Homo sapiens, LNCaP, Prostate, Fibroblastoid), 7.54; in series [3] (Homo sapiens, MDA-MB-231, MDA-MB-231, Breast, Epithelial), 7.28; in series [3] (Homo sapiens, MIA PaCa-2, Miapaca-2, Pancreas, Epithelial) it was 7.44. Besides, the pIC50 in series [3] (Homo sapiens, NCI-H460, H460, Lung, Epithelial) is 7.05; in series [3] (Homo sapiens, NCI-H1299, H1299, Lung, NSCL), 7.16; in series [3] (Homo sapiens, SAOS-2, Saos-2, Bone, Epithelial), 6.91; in series [3] (Homo sapiens, SK-MES-1, SK-MES-1, Lung, Sqaumous carcinoma) it was 7.68; in series [3] (Homo sapiens, SK-OV-3, SK-OV-3, Ovary, Epithelial) it was 7.19; in series [3] (Homo sapiens, U2OS, Bone, Epithelial) it was 7.05. The pIC50 in series [3] (Miapaca-R5, Pancreas, Epithelial) is 7.47; in series [3] (PC-3, Prostate, Epithelial) it was 7.05.

The term pIC50 denotes the negative decadic logarithm of the IC50, by convention in mol/L. What is called AUC(0-t) is exposure summed from dosing to a finite time, without extrapolation to infinity.
